From patent publication US10485235B2, “Aryloxypyrimidinyl ethers as herbicides” (FMC Corporation, priority 2015, dated 2019)

Assays:
Assay type in all cases: in vivo
[1] = tested on: ducksalad (Heteranthera limosa); experiment: Test B flooded paddy test, ducksalad; settings: 250 g ai/ha, Flood; visual rating after 13 to 15 days; scale 0 to 100, 0 is no effect, 100 is complete control
In short: (§1)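 Plants grown to 2-leaf stage, pots flooded to 3 cm above soil and compound applied directly to paddy water, depth maintained throughout. After 13-15 days in greenhouse, visual rating against untreated controls on 0-100 scale (0 no effect, 100 complete control).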

kochia (Kochia scoparia) [2] = experiment: Test A postemergence, kochia; settings: postemergence, 0 to 100 scale, 0 is no effect, 100 is complete control, approximately 10 days
In short: (§2)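 Test chemicals in a solvent/surfactant mixture were applied as a preemergence directed soil spray on seeded loam–sand, or postemergence to plants 2–10 cm tall at the one- to two-leaf stage. After roughly 10 days in a greenhouse, injury was visually rated versus untreated controls on a 0 (no effect) to 100 (complete control) scale.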

[3] = tested on: ryegrass, Italian (Italian ryegrass, Lolium multiflorum); experiment: Test A preemergence, Italian ryegrass; settings: Preemergence, 0 to 100 scale (0 no effect, 100 complete control)
In short: as §2

[4] = tested on: pigweed (Amaranthus retroflexus); experiment: Test A postemergence, pigweed; settings: postemergence, 0 to 100 scale, 0 is no effect, 100 is complete control, approximately 10 days
In short: as §2

kochia (Kochia scoparia) [5] = experiment: Test A preemergence, kochia; settings: Preemergence, 0 to 100 scale (0 no effect, 100 complete control)
In short: as §2

[6] = tested on: wheat (Triticum aestivum); experiment: Test A postemergence, wheat; settings: postemergence, 0 to 100 scale, 0 is no effect, 100 is complete control, approximately 10 days
In short: as §2

[7] = tested on: barnyardgrass (Echinochloa crus-galli); experiment: Test A postemergence, barnyardgrass; settings: postemergence, 0 to 100 scale, 0 is no effect, 100 is complete control, approximately 10 days
In short: as §2

[8] = tested on: ryegrass, Italian (Italian ryegrass, Lolium multiflorum); experiment: Test A postemergence, Italian ryegrass; settings: postemergence, 0 to 100 scale, 0 is no effect, 100 is complete control, approximately 10 days
In short: as §2

[9] = tested on: foxtail, giant (giant foxtail, Setaria faberii); experiment: Test A preemergence, giant foxtail; settings: Preemergence, 0 to 100 scale (0 no effect, 100 complete control)
In short: as §2

[10] = tested on: sedge, umbrella (small-flower umbrella sedge, Cyperus difformis); experiment: Test B flooded paddy test, umbrella sedge; settings: 250 g ai/ha, Flood; visual rating after 13 to 15 days; scale 0 to 100, 0 is no effect, 100 is complete control
In short: as §1

rice (Oryza sativa) = experiment: Test B flooded paddy test, rice; settings: 250 g ai/ha, Flood; visual rating after 13 to 15 days; scale 0 to 100, 0 is no effect, 100 is complete control
In short: as §1

[11] = tested on: blackgrass (Alopecurus myosuroides); experiment: Test A postemergence, blackgrass; settings: postemergence, 0 to 100 scale, 0 is no effect, 100 is complete control, approximately 10 days
In short: as §2

[12] = tested on: foxtail, giant (giant foxtail, Setaria faberii); experiment: Test A postemergence, giant foxtail; settings: postemergence, 0 to 100 scale, 0 is no effect, 100 is complete control, approximately 10 days
In short: as §2

[13] = tested on: pigweed (Amaranthus retroflexus); experiment: Test A preemergence, pigweed; settings: Preemergence, 0 to 100 scale (0 no effect, 100 complete control)
In short: as §2

[14] = tested on: galium (catchweed bedstraw, Galium aparine); experiment: Test A postemergence, galium; settings: postemergence, 0 to 100 scale, 0 is no effect, 100 is complete control, approximately 10 days
In short: as §2

[15] = tested on: ragweed (common ragweed, Ambrosia elatior); experiment: Test A postemergence, ragweed; settings: postemergence, 0 to 100 scale, 0 is no effect, 100 is complete control, approximately 10 days
In short: as §2

[16] = tested on: barnyardgrass (Echinochloa crus-galli); experiment: Test A preemergence, barnyardgrass; settings: Preemergence, 0 to 100 scale (0 no effect, 100 complete control)
In short: as §2

[17] = tested on: ragweed (common ragweed, Ambrosia elatior); experiment: Test A preemergence, ragweed; settings: Preemergence, 0 to 100 scale (0 no effect, 100 complete control)
In short: as §2

[18] = tested on: barnyardgrass (Echinochloa crus-galli); experiment: Test B flooded paddy test, barnyardgrass; settings: 250 g ai/ha, Flood; visual rating after 13 to 15 days; scale 0 to 100, 0 is no effect, 100 is complete control
In short: as §1

corn (Zea mays) = experiment: Test A postemergence, corn; settings: postemergence, 0 to 100 scale, 0 is no effect, 100 is complete control, approximately 10 days
In short: as §2

Row | SMILES | Plant response rating, Ducksalad [1] | Plant response rating, Kochia (kochia (Kochia scoparia) [2]; 125 g ai/ha) | Plant response rating, Ryegrass, Italian ([3]; 125 g ai/ha) | Plant response rating, Pigweed ([4]; 125 g ai/ha) | Plant response rating, Kochia (kochia (Kochia scoparia) [5]; 125 g ai/ha) | Plant response rating, Wheat ([6]; 125 g ai/ha) | Plant response rating, Barnyardgrass ([7]; 125 g ai/ha) | Plant response rating, Ryegrass, Italian ([8]; 125 g ai/ha) | Plant response rating, Foxtail, Giant ([9]; 125 g ai/ha) | Plant response rating, Sedge, Umbrella [10] | Plant response rating, Rice (rice (Oryza sativa)) | Plant response rating, Blackgrass ([11]; 125 g ai/ha) | Plant response rating, Foxtail, Giant ([12]; 125 g ai/ha) | Plant response rating, Pigweed ([13]; 125 g ai/ha) | Plant response rating, Galium ([14]; 125 g ai/ha) | Plant response rating, Ragweed ([15]; 125 g ai/ha) | Plant response rating, Barnyardgrass ([16]; 125 g ai/ha) | Plant response rating, Ragweed ([17]; 125 g ai/ha) | Plant response rating, Barnyardgrass [18] | Plant response rating, Corn (corn (Zea mays); 125 g ai/ha) | further results
1 | N#Cc1cccc(Oc2ncc(Cl)cn2)c1OCCCCC(F)(F)F [Compound 32] | 90 | 100 | 30 | 100 | 90 | 30 | 100 | 30 | 100 | 100 | 40 | 50 | 80 | 100 | 100 | 10 | 100 | 10 | 30 | 20 | Plant response rating, Kochia (kochia (Kochia scoparia) [2]; 31 g ai/ha): 100; Plant response rating, Ryegrass, Italian ([3]; 31 g ai/ha): 10; Plant response rating, Pigweed ([4]; 31 g ai/ha): 100; Plant response rating, Kochia (kochia (Kochia scoparia) [5]; 31 g ai/ha): 30; Plant response rating, Wheat ([6]; 31 g ai/ha): 20; Plant response rating, Barnyardgrass ([7]; 31 g ai/ha): 60; Plant response rating, Ryegrass, Italian ([8]; 31 g ai/ha): 10; Plant response rating, Foxtail, Giant ([9]; 31 g ai/ha): 100; Plant response rating, Blackgrass ([11]; 31 g ai/ha): 30; Plant response rating, Foxtail, Giant ([12]; 31 g ai/ha): 50; Plant response rating, Pigweed ([13]; 31 g ai/ha): 100; Plant response rating, Galium ([14]; 31 g ai/ha): 70; Plant response rating, Ragweed ([15]; 31 g ai/ha): 10; Plant response rating, Barnyardgrass ([16]; 31 g ai/ha): 30; Plant response rating, Ragweed ([17]; 31 g ai/ha): 0; Plant response rating, Corn (corn (Zea mays); 31 g ai/ha): 10
2 | FC(F)(F)CCCCOc1c(Br)cccc1Oc1ncc(Cl)cn1 [Compound 33] | 30 | 90 | 20 | 100 | 20 | 10 | 60 | 20 | 100 | 95 | 0 | 40 | 60 | 90 | 90 | 10 | 50 | 0 | 0 | 20 | Plant response rating, Kochia (kochia (Kochia scoparia) [2]; 31 g ai/ha): 50; Plant response rating, Ryegrass, Italian ([3]; 31 g ai/ha): 0; Plant response rating, Pigweed ([4]; 31 g ai/ha): 80; Plant response rating, Kochia (kochia (Kochia scoparia) [5]; 31 g ai/ha): 0; Plant response rating, Wheat ([6]; 31 g ai/ha): 0; Plant response rating, Barnyardgrass ([7]; 31 g ai/ha): 10; Plant response rating, Ryegrass, Italian ([8]; 31 g ai/ha): 0; Plant response rating, Foxtail, Giant ([9]; 31 g ai/ha): 60; Plant response rating, Blackgrass ([11]; 31 g ai/ha): 10; Plant response rating, Foxtail, Giant ([12]; 31 g ai/ha): 20; Plant response rating, Pigweed ([13]; 31 g ai/ha): 10; Plant response rating, Galium ([14]; 31 g ai/ha): 50; Plant response rating, Ragweed ([15]; 31 g ai/ha): 0; Plant response rating, Barnyardgrass ([16]; 31 g ai/ha): 10; Plant response rating, Ragweed ([17]; 31 g ai/ha): 0; Plant response rating, Corn (corn (Zea mays); 31 g ai/ha): 10
3 | CC(COc1c(C#N)cccc1Oc1ncc(Cl)cn1)CC(F)(F)F (stereo not drawn) [Compound 34] | 40 | 90 | 10 | 100 | 80 | 10 | 20 | 0 | 100 | 75 | 20 | 20 | 40 | 100 | 70 | 10 | 70 | 0 | 0 | 20 | Plant response rating, Kochia (kochia (Kochia scoparia) [2]; 500 g ai/ha): 100; Plant response rating, Ryegrass, Italian ([3]; 500 g ai/ha): 40; Plant response rating, Pigweed ([4]; 500 g ai/ha): 100; Plant response rating, Kochia (kochia (Kochia scoparia) [5]; 500 g ai/ha): 100; Plant response rating, Wheat ([6]; 500 g ai/ha): 20; Plant response rating, Barnyardgrass ([7]; 500 g ai/ha): 50; Plant response rating, Ryegrass, Italian ([8]; 500 g ai/ha): 20; Plant response rating, Foxtail, Giant ([9]; 500 g ai/ha): 100; Plant response rating, Blackgrass ([11]; 500 g ai/ha): 60; Plant response rating, Foxtail, Giant ([12]; 500 g ai/ha): 90; Plant response rating, Pigweed ([13]; 500 g ai/ha): 100; Plant response rating, Galium ([14]; 500 g ai/ha): 90; Plant response rating, Ragweed ([15]; 500 g ai/ha): 10; Plant response rating, Barnyardgrass ([16]; 500 g ai/ha): 100; Plant response rating, Ragweed ([17]; 500 g ai/ha): 10; Plant response rating, Corn (corn (Zea mays); 500 g ai/ha): 40
4 | FC(F)=C(F)CCOc1c(Br)cccc1Oc1ncc(Cl)cn1 [Compound 38] | 75 | 70 | 10 | 80 | 70 | 0 | 30 | 10 | 100 | 100 | 0 | 10 | 40 | 100 | 50 | 10 | 70 | 0 | 0 | 20 | Plant response rating, Kochia (kochia (Kochia scoparia) [2]; 31 g ai/ha): 20; Plant response rating, Ryegrass, Italian ([3]; 31 g ai/ha): 0; Plant response rating, Pigweed ([4]; 31 g ai/ha): 40; Plant response rating, Kochia (kochia (Kochia scoparia) [5]; 31 g ai/ha): 0; Plant response rating, Wheat ([6]; 31 g ai/ha): 0; Plant response rating, Barnyardgrass ([7]; 31 g ai/ha): 10; Plant response rating, Ryegrass, Italian ([8]; 31 g ai/ha): 0; Plant response rating, Foxtail, Giant ([9]; 31 g ai/ha): 30; Plant response rating, Blackgrass ([11]; 31 g ai/ha): 0; Plant response rating, Foxtail, Giant ([12]; 31 g ai/ha): 10; Plant response rating, Pigweed ([13]; 31 g ai/ha): 0; Plant response rating, Galium ([14]; 31 g ai/ha): 10; Plant response rating, Ragweed ([15]; 31 g ai/ha): 0; Plant response rating, Barnyardgrass ([16]; 31 g ai/ha): 10; Plant response rating, Ragweed ([17]; 31 g ai/ha): 0; Plant response rating, Corn (corn (Zea mays); 31 g ai/ha): 10
